# Assay results published in patent EP0517412A1, “Pharmaceutical formulations of a benzodiazepine” (MERCK SHARP & DOHME LTD., priority 1991, dated 1992).
# Tests used:
# Assay type in all cases: physicochemical
# [1] = maximum solubility of the benzodiazepine in carriers of the invention
# [2] = solubility of the benzodiazepine in prior-art type carriers
# solubility in water = assay: solubility in water
compound,measurement,setting,value
"Cc1cccc(NC(=O)NC2N=C(c3ccccc3)c3ccccc3N(C)C2=O)c1 (stereo not drawn) [(A), 3R(+)-N-(2,3-dihydro-1-methyl-2-oxo-5-phenyl-1H-1,4-benzodiazepin-3-yl)-N'-(3-methylphenyl)-urea]",amount that can be dissolved,"[1]; Method 2 (room temperature method, 20°C, Silverson mixer), Labrafil M2125 CS, Tween 80, propylene glycol, purified water",up to 6 % (w/w)
same,maximum solubility for the benzodiazepine,[1]; carrier Labrasol/Tween 80,~240 mg/g
same,maximum solubility for the benzodiazepine,[1]; carrier comprising Imwitor 742 and Tween 80,~140 mg/g
same,maximum solubility for the benzodiazepine,[1]; corresponding Labrafil-containing carrier,60 to 80 mg/g
same,solubility in the mixture of ingredients of the carrier,[1]; mixture of carrier ingredients compared with the separate ingredients,more than in the separate ingredients
same,percentage of the active ingredient that can be dissolved in the carrier,[1]; without heating,around 6%
same,solubility (carrier a poor solvent),[2]; benzodiazepine substituted for cyclosporin in formulation type of GB 2 228 198 (Maisine and Cremophore RH40),less than 10 mg/g
same,solubility,[2]; benzodiazepine substituted for cyclosporin in formulation type of GB 2015339 (Labrafil M1944CS and ethanol with corn oil or olive oil; or glycerol mono-oleate and ethanol),~20 mg/g
same,solubility,"[2]; benzodiazepine substituted for dihydrocyclosporin in formulation type of BE 895 724 (ethanol, Imwitor 742, esterified corn oil)",~60 mg/g
same,solubility,solubility in water,< 2 µg/mL
